Assay [1] concerns the target T1, Bifunctional 3'-5' exonuclease/ATP-dependent helicase WRN [480-1251] (UniProt Q14191).
T1 construct: 480-1251
Nature of the assay: Biochemical Activity Assays.

Assay [2] concerns the target Bifunctional 3'-5' exonuclease/ATP-dependent helicase WRN (Homo sapiens, UniProt Q14191). Nature of the assay: ADP-Glo Kinase Assay. As to the method: ATPase activity was measured using the ADP-Glo Kinase Assay following the manufacturers recommended protocol.

Structures are written as SMILES.

By IC50 is commonly meant the midpoint of a concentration-inhibition curve. Low values mean inhibition by little substance, high ones a need for much substance.

T1 sequence (Q14191 480-1251): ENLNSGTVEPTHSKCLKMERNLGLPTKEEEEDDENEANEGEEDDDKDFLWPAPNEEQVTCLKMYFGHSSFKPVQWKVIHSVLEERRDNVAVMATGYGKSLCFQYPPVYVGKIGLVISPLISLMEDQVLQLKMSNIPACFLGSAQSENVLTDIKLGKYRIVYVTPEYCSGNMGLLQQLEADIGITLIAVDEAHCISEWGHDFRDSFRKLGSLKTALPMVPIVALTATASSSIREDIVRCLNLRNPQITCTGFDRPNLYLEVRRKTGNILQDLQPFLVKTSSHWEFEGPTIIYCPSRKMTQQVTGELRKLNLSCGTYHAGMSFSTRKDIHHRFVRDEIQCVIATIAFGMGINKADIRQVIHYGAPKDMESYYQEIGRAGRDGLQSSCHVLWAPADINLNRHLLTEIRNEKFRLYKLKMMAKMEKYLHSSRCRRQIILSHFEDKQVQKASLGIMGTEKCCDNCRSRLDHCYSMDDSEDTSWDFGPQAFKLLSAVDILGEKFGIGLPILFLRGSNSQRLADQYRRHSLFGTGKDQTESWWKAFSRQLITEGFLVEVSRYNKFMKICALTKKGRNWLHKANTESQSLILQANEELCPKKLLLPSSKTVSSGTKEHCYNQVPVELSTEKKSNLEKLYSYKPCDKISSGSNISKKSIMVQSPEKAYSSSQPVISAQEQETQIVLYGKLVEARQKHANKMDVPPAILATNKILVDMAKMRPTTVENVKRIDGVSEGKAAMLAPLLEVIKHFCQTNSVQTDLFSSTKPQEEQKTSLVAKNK
Sequence of Bifunctional 3'-5' exonuclease/ATP-dependent helicase WRN (Q14191 whole entry): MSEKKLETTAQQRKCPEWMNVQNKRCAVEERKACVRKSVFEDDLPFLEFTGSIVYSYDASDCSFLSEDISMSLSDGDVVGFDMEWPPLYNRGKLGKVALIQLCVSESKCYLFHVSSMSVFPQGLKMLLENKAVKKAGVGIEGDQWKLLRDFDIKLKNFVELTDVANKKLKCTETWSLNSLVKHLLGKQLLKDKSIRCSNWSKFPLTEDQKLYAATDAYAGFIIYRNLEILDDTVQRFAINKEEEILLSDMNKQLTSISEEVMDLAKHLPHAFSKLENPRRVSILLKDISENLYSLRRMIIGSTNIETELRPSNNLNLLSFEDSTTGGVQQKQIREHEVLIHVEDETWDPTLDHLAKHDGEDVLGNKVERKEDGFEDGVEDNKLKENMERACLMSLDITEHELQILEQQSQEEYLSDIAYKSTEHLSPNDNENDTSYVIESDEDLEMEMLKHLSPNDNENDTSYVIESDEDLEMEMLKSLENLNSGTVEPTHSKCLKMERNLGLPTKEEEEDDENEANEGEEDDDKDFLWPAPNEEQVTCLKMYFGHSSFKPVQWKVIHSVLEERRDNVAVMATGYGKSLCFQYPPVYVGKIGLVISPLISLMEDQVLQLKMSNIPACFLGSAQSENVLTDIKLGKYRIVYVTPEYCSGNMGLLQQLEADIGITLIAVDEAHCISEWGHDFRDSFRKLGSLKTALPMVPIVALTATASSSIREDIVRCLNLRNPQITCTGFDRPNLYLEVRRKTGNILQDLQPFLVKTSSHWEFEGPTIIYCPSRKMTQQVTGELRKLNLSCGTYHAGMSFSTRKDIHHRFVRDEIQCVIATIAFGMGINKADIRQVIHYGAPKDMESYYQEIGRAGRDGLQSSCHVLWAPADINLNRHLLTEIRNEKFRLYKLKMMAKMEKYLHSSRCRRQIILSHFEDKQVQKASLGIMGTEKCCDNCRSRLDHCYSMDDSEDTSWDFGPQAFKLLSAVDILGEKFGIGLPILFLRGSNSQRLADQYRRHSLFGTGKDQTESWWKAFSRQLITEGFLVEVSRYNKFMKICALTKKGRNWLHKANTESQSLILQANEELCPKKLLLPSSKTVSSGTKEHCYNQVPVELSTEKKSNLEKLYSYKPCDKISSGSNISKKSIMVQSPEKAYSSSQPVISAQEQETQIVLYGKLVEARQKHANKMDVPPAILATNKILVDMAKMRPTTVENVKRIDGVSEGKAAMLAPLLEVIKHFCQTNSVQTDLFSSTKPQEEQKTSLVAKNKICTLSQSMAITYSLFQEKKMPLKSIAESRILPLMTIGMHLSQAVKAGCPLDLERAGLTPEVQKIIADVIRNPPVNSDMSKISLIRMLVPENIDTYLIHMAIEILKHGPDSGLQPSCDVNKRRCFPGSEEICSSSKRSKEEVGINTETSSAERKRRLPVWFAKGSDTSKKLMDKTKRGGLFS

For the compound `CCc1c(N2CCN(C(=O)c3ncnc(C)c3O)CC2)c(=O)n2nc(-c3cnc4c(c3)COC4)nc2n1CC(=O)Nc1ccc(C(F)(F)F)cc1Cl` [WO2025049746, Example 14], the half-maximal inhibitory concentration (IC50) in assay [1] amounted to 33.1 nM; in assay [2], 39.3 nM.
The matching figures for `CCc1c(N2CCN(C(=O)c3ncnc(C)c3O)CC2)c(=O)n2nc(-c3ccc4nc(N5CCOCC5)oc4c3)nc2n1CC(=O)Nc1ccc(C(F)(F)F)cc1Cl` [WO2025049746, Example 315]: 33 nM and 34 nM.
The matching figures for `CCc1c(N2CCN(C(=O)c3ncnc(C)c3O)CC2)c(=O)n2nc(-c3ccn4nccc4c3)nc2n1CC(=O)Nc1ccc(C(F)(F)F)cc1Cl` [WO2025049746, Example 176]: 76 nM and 95 nM.
As for `CCc1c(N2CCN(C(=O)c3ncnc(C)c3O)CC2)c(=O)n2nc(-c3ccc4c(c3)CN(C)C4)nc2n1CC(=O)Nc1ccc(C(F)(F)F)cc1Cl` [WO2025049746, Example 197], the IC50 in assay [1] was determined as 52 nM; in assay [2], 50 nM.
With `CCc1c(N2CCN(C(=O)c3ncnc(C)c3O)CC2)c(=O)n2nc(-c3cccc4c3COC4)nc2n1CC(=O)Nc1c(Cl)cc(C(F)(F)F)c2c1CC2` [WO2025049746, Example 386], the values for the IC50 in assay [1] and in assay [2] were 60 nM and 89 nM, respectively.
With `CCc1c(N2CCN(C(=O)c3ncnc(C)c3O)CC2)c(=O)n2nc(-c3ccc(S(=O)(=O)N4CCC4)cc3)nc2n1CC(=O)Nc1ccc(C(F)(F)F)cc1Cl` [WO2025049746, Example 270], the results for the IC50 in assay [1] and in assay [2] were 18 nM and 19 nM, respectively.
Take `CCc1c(N2CCN(C(=O)c3ncnc(C)c3O)CC2)c(=O)n2nc(-c3ccc4c(c3)COC43COC3)nc2n1CC(=O)Nc1ccc(C(F)(F)F)cc1Cl` [WO2025049746, Example 278]: the IC50 is 36 nM in assay [1] and 31 nM in assay [2].
The matching figures for `CCc1c(N2CCN(C(=O)c3ncnc(C)c3O)CC2)c(=O)n2nc(-c3cc4cn(C)nc4cc3F)nc2n1CC(=O)Nc1ccc(C(F)(F)F)cc1Cl` [WO2025049746, Example 256]: 22 nM and 23 nM.
The matching figures for `CCc1c(N2CCN(C(=O)c3ccccc3NS(=O)(=O)C3CC3)CC2)c(=O)n2nc(-c3ccc4c(c3)CCOC4)nc2n1CC(=O)Nc1ccc(C(F)(F)F)cc1Cl` [WO2025049746, Example 91]: 84.6 nM and 106 nM.
The corresponding values for `CCc1c(N2CCN(C(=O)c3ncnc(C)c3O)CC2)c(=O)n2nc(-c3ccn4c(cc(=O)n4C(F)F)c3F)nc2n1CC(=O)Nc1ccc(C(F)(F)F)cc1Cl` [WO2025049746, Example 335] are 58 nM and 64 nM.
On to `CCc1c(N2CCN(C(=O)c3nsc(N4CCN(C)CC4)c3O)CC2)c(=O)n2nc(-c3ccc4c(c3)COC4)nc2n1CC(=O)Nc1ccc(C(F)(F)F)cc1Cl` [WO2025049746, Example 443], for which the IC50 in assay [1] and in assay [2] was 65 nM in each case.
`CCc1c(N2CCN(C(=O)c3ccccc3NS(=O)(=O)C3CC3)CC2)c(=O)n2nc(N(C)C)nc2n1CC(=O)Nc1ccc(C(F)(F)F)cc1Cl` [WO2025049746, Example 85]: the IC50 in assay [1] was determined as 28.2 nM; in assay [2], 35.1 nM.
For the compound `CCc1c(N2CCN(C(=O)c3ncnc(C)c3O)CC2)c(=O)n2nc(-c3cc4c(cc3C)C(C)(C)OC4)nc2n1CC(=O)Nc1ccc(C(F)(F)F)cc1Cl` [WO2025049746, Example 213], the half-maximal inhibitory concentration (IC50) in assay [1] worked out at 58 nM; in assay [2] it was 85 nM.
The corresponding values for `CCc1c(N2CCN(C(=O)c3ncnc(C)c3O)CC2)c(=O)n2nc(N(C)C)nc2n1CC(=O)Nc1ccc(C(F)(F)F)cc1C` [WO2025049746, Example 77] are 44.3 nM and 62.1 nM.
The corresponding values for `CCc1c(N2CCN(C(=O)c3cc4nnn(C)c4cc3OC)CC2)c(=O)n2nc(-c3ccc4c(c3)COC4)nc2n1CC(=O)Nc1ccc(C(F)(F)F)cc1Cl` [WO2025049746, Example 429] are 94 nM and 118 nM.
The corresponding values for `CCc1c(N2CCN(C(=O)c3ncnc(C)c3O)CC2)c(=O)n2nc(-c3ccc4nn(CC)cc4c3)nc2n1CC(=O)Nc1ccc(C(F)(F)F)cc1Cl` [WO2025049746, Example 319] are 30 nM and 25 nM.
On to `CCc1c(N2CCN(C(=O)c3ncnc(C)c3O)C[C@@H]2C)c(=O)n2nc(-c3ccc4c(c3)COC4(C)C)nc2n1CC(=O)Nc1ccc(C(F)(F)F)cc1Cl` [WO2025049746, Example 453], for which the values for the IC50 in assay [1] and in assay [2] were 50 nM and 39 nM, respectively.
The matching figures for `CCc1c(N2CCN(C(=O)c3ncnc(C)c3O)CC2)c(=O)n2nc(-c3ccc4c(c3)C(=O)NC4)nc2n1CC(=O)Nc1ccc(C(F)(F)F)cc1Cl` [WO2025049746, Example 188]: 30 nM and 52 nM.
The corresponding values for `CCc1c(N2CCN(C(=O)c3ncnc(C)c3O)CC2)c(=O)n2nc(-c3cc4n(n3)CCOC4)nc2n1CC(=O)Nc1ccc(C(F)(F)F)cc1Cl` [WO2025049746, Example 154] are 50 nM and 69 nM.
The matching figures for `CCc1c(N2CCN(C(=O)c3ccccc3NS(C)(=O)=O)CC2)c(=O)n2nc(N(C)C)nc2n1CC(=O)Nc1ccc(C(F)(F)F)c2c1CC2` [WO2025049746, Example 106]: 276 nM and 414 nM.
For the compound `CCc1c(N2CCN(C(=O)c3nccc4nc[nH]c34)CC2)c(=O)n2nc(-c3ccc4c(c3)COC4(C)C)nc2n1CC(=O)Nc1ccc(C(F)(F)F)cc1Cl` [WO2025049746, Example 456], the results for the IC50 in assay [1] and in assay [2] were 55 nM and 57 nM, respectively.
For the compound `CCc1c(N2CCN(C(=O)c3ncnc(C)c3O)CC2)c(=O)n2nc(C3=CCOCC3)nc2n1CC(=O)Nc1ccc(C(F)(F)F)cn1` [WO2025049746, Example 363], the IC50 in assay [1] came out at 81 nM; in assay [2], 155 nM.
Regarding `CCc1c(N2CCN(C(=O)c3ncnc(C)c3O)CC2)c(=O)n2nc(-c3ccc4nn(C)cc4c3C)nc2n1CC(=O)Nc1ccc(C(F)(F)F)cc1Cl` [WO2025049746, Example 295], the IC50 in assay [1] stood at 35 nM; in assay [2], 34 nM.
Take `CCc1c(N2CCN(C(=O)c3ncnc(C)c3O)CC2)c(=O)n2nc(-c3ccn4nccc4c3C)nc2n1CC(=O)Nc1ccc(C(F)(F)F)cc1Cl` [WO2025049746, Example 239]: the IC50 was 22 nM in assay [1] and 21 nM in assay [2].
Take `CCc1c(N2CCN(C(=O)c3ncnc(C)c3O)CC2)c(=O)n2nc(-c3ccc4nn(CC(F)F)cc4c3)nc2n1CC(=O)Nc1ccc(C(F)(F)F)cc1Cl` [WO2025049746, Example 292]: the IC50 in assay [1] came out at 29 nM; in assay [2], 28 nM.
Take `CCc1c(N2CCN(C(=O)c3ncnc(C)c3O)CC2)c(=O)n2nc(-c3ccc4c(c3)COC43CCC3)nc2n1CC(=O)Nc1ccc(C(F)(F)F)cc1Cl` [WO2025049746, Example 215]: the IC50 in assay [1] stood at 46 nM; in assay [2] it was 48 nM.
`CCc1c(N2CCN(C(=O)c3ncnc(C)c3O)CC2)c(=O)n2nc(C3=CCOCC3)nc2n1CC(=O)Nc1ccc(C(F)(F)F)n(C)c1=O` [WO2025049746, Example 367]: the IC50 in assay [1] was 8510 nM; in assay [2], 29700 nM.
Turning to `CCc1c(N2CCN(C(=O)c3ncnc(C)c3O)CC2)c(=O)n2nc(-c3ccc4c(c3)COC4)nc2n1CC(=O)Nc1ccc(SC(F)(F)F)cc1Cl` [WO2025049746, Example 409], the IC50 in assay [1] came to 25 nM; in assay [2] it was 31 nM.
The matching figures for `CCc1c(N2CCN(C(=O)c3ncnc(C)c3O)CC2)c(=O)n2nc(-c3ccc4c(c3)CCC(=O)N4C)nc2n1CC(=O)Nc1ccc(C(F)(F)F)cc1Cl` [WO2025049746, Example 324]: 32 nM and 25 nM.
The matching figures for `CCc1c(N2CCN(C(=O)c3ccccc3NS(C)(=O)=O)CC2)c(=O)n2nc(C3=CCOCC3)nc2n1CC(=O)Nc1ccc(C(F)(F)F)cc1Cl` [WO2025049746, Example 38]: 60.3 nM and 70.8 nM.
The matching figures for `CCc1c(N2CCN(C(=O)c3ncnc(C)c3O)CC2)c(=O)n2nc(-c3ccc4c(c3)CCOC4)nc2n1CC(=O)Nc1ccc(OC(F)(F)Cl)cc1` [WO2025049746, Example 398]: 34 nM and 43 nM.
On to `CCc1c(N2CCN(C(=O)c3cc4nnn(C)c4cc3O)CC2)c(=O)n2nc(-c3ccc4c(c3)COC4)nc2n1CC(=O)Nc1ccc(C(F)(F)F)cc1Cl` [WO2025049746, Example 433], for which the IC50 in assay [1] turned out to be 109 nM; in assay [2] it was 138 nM.
The matching figures for `CCc1c(N2CCN(C(=O)c3ncnc(C)c3O)CC2)c(=O)n2nc(N(C)C)nc2n1CC(=O)Nc1ccc(SC(F)(F)F)cc1` [WO2025049746, Example 392]: 396 nM and 468 nM.
Take `Cc1ncnc(C(=O)N2CCN(c3c4n(c5nc(-c6ccc7c(c6)COC7(C)C)nn5c3=O)[C@H](C(=O)Nc3ccc(C(F)(F)F)cc3Cl)C[C@H]4C)CC2)c1O` [WO2025049746, Example 469]: the 50% inhibitory concentration (IC50) in assay [1] was 27.5 nM; in assay [2] it was 25.5 nM.
The matching figures for `CCc1c(N2CCN(C(=O)c3ncnc(C)c3O)CC2)c(=O)n2nc(-c3ccc4nc(N)oc4c3)nc2n1CC(=O)Nc1ccc(C(F)(F)F)cc1Cl` [WO2025049746, Example 284]: 26 nM and 25 nM.
The corresponding values for `CCc1c(N2CCN(C(=O)c3ncnc(C)c3O)CC2)c(=O)n2nc(C3=CCOCC3)nc2n1CC(=O)NC12COC(C(F)(F)F)(C1)C2` [WO2025049746, Example 70] are 748 nM and 852 nM.
The matching figures for `CCc1c(N2CCN(C(=O)c3ncnc(C)c3O)CC2)c(=O)n2nc(C3=CCOCC3)nc2n1CC(=O)NC12CCC(C(F)(F)F)(CC1)C2` [WO2025049746, Example 362]: 615 nM and 1650 nM.
Consider `CCc1c(N2CCN(C(=O)c3ncnc(C)c3O)CC2)c(=O)n2nc(-c3ccc4nn(C)c(F)c4c3)nc2n1CC(=O)Nc1ccc(C(F)(F)F)cc1Cl` [WO2025049746, Example 290], for which the IC50 in assay [1] was 31 nM; in assay [2], 29 nM.

The values above are taken from BindingDB's records for patent WO2025049746 (Eikon Therapeutics, 2025).
